In article PMC11005723, “Development of Complementary Photo‐arginine/lysine to Promote Discovery of Arg/Lys hPTMs Interactomes” (Advanced Science, 2024):

Test system: HEK293T nuclear lysates
Experiment: SILAC‐based pull‐down proteomics H4K5me2/H4K5 (probes 7/5)
Assay type: binding, human
Conditions: for F6 log2 (H4K5me2/H4K5): run F6; for E6 log2 (H4K5me2/H4K5): run E6

probe 7: H4K5me2 peptide probe with photo‐arginine R(dz) and K(biotin) (SGRGKGGKGLGKGGK; photo-arginine R(dz) at 3; dimethyl-lysine at 5; K(biotin) at 15)
F6 log2 (H4K5me2/H4K5) (protein Q5SY16 NOL9): 0.298 | E6 log2 (H4K5me2/H4K5) (protein Q5UIP0 RIF1): 0.1193 | F6 log2 (H4K5me2/H4K5) (protein Q5UIP0 RIF1): -0.04241 | E6 log2 (H4K5me2/H4K5) (protein Q5VZL5 ZMYM4): 0.09551 | F6 log2 (H4K5me2/H4K5) (protein Q5VZL5 ZMYM4): -0.04431 | E6 log2 (H4K5me2/H4K5) (protein Q8NFW8 CMAS): 0.141 | F6 log2 (H4K5me2/H4K5) (protein Q8NFW8 CMAS): 0.05465 | E6 log2 (H4K5me2/H4K5) (protein Q8WYA6 CTNNBL1): 0.1516 | F6 log2 (H4K5me2/H4K5) (protein Q8WYA6 CTNNBL1): 0.456 | E6 log2 (H4K5me2/H4K5) (protein Q9BRX2 PELO): 0.1716 | F6 log2 (H4K5me2/H4K5) (protein Q9BRX2 PELO): 0.4162 | E6 log2 (H4K5me2/H4K5) (protein Q9BUF5 TUBB6): 0.1331 | F6 log2 (H4K5me2/H4K5) (protein Q9BUF5 TUBB6): -0.5148 | E6 log2 (H4K5me2/H4K5) (protein Q9BVA1 TUBB2B): 0.166 | F6 log2 (H4K5me2/H4K5) (protein Q9BVA1 TUBB2B): -0.2469 | E6 log2 (H4K5me2/H4K5) (protein Q9BVJ6 UTP14A): 0.05903 | F6 log2 (H4K5me2/H4K5) (protein Q9BVJ6 UTP14A): -0.461 | E6 log2 (H4K5me2/H4K5) (protein Q9BW71 HIRIP3): 0.0877 | F6 log2 (H4K5me2/H4K5) (protein Q9BW71 HIRIP3): -0.01781 | E6 log2 (H4K5me2/H4K5) (protein Q9BXP5 SRRT): 0.141 | F6 log2 (H4K5me2/H4K5) (protein Q9BXP5 SRRT): 0.1118 | E6 log2 (H4K5me2/H4K5) (protein Q9H4L7 SMARCAD1): 0.1459 | F6 log2 (H4K5me2/H4K5) (protein Q9H4L7 SMARCAD1): 0.07323 | E6 log2 (H4K5me2/H4K5) (protein Q9H5H4 ZNF768): 0.1121 | F6 log2 (H4K5me2/H4K5) (protein Q9H5H4 ZNF768): 0.2152 | E6 log2 (H4K5me2/H4K5) (protein Q9NPJ6 MED4): 0.1455 | F6 log2 (H4K5me2/H4K5) (protein Q9NPJ6 MED4): 0.1113 | E6 log2 (H4K5me2/H4K5) (protein Q9NRL2 BAZ1A): 0.163 | F6 log2 (H4K5me2/H4K5) (protein Q9NRL2 BAZ1A): 0.1532 | E6 log2 (H4K5me2/H4K5) (protein Q9NX58 LYAR): 0.1556 | F6 log2 (H4K5me2/H4K5) (protein Q9NX58 LYAR): 0.3557 | E6 log2 (H4K5me2/H4K5) (protein Q9P013 CWC15): 0.1308 | F6 log2 (H4K5me2/H4K5) (protein Q9P013 CWC15): 0.1373 | E6 log2 (H4K5me2/H4K5) (protein Q9P258 RCC2): 0.1054 | F6 log2 (H4K5me2/H4K5) (protein Q9P258 RCC2): 0.04172 | E6 log2 (H4K5me2/H4K5) (protein Q9UFW8 CGGBP1): 0.1502 | F6 log2 (H4K5me2/H4K5) (protein Q9UFW8 CGGBP1): 0.1918 | E6 log2 (H4K5me2/H4K5) (protein Q9ULV4 CORO1C): 0.1506 | F6 log2 (H4K5me2/H4K5) (protein Q9ULV4 CORO1C): 0.2392 | E6 log2 (H4K5me2/H4K5) (protein Q9Y5Q8 GTF3C5): 0.07771 | F6 log2 (H4K5me2/H4K5) (protein Q9Y5Q8 GTF3C5): -0.06295 | E6 log2 (H4K5me2/H4K5) (protein Q9Y5Q9 GTF3C3): 0.06434 | F6 log2 (H4K5me2/H4K5) (protein Q9Y5Q9 GTF3C3): 0.04559 | E6 log2 (H4K5me2/H4K5) (protein Q9Y6G9 DYNC1LI1): 0.06739 | F6 log2 (H4K5me2/H4K5) (protein Q9Y6G9 DYNC1LI1): 0.07842 | E6 log2 (H4K5me2/H4K5) (protein Q9Y383 LUC7L2): 0.1112 | F6 log2 (H4K5me2/H4K5) (protein Q9Y383 LUC7L2): 0.1004 | E6 log2 (H4K5me2/H4K5) (protein Q69YN4 KIAA1429): 0.07633 | F6 log2 (H4K5me2/H4K5) (protein Q69YN4 KIAA1429): 1.095 | E6 log2 (H4K5me2/H4K5) (protein Q86UV5 USP48): 0.08539 | F6 log2 (H4K5me2/H4K5) (protein Q86UV5 USP48): 0.1516 | E6 log2 (H4K5me2/H4K5) (protein Q86VP6 CAND1): 0.1189 | F6 log2 (H4K5me2/H4K5) (protein Q86VP6 CAND1): 0.1916 | E6 log2 (H4K5me2/H4K5) (protein Q96I24 FUBP3): 0.09267 | F6 log2 (H4K5me2/H4K5) (protein Q96I24 FUBP3): 0.003553 | E6 log2 (H4K5me2/H4K5) (protein Q96RL1 UIMC1): 0.1095 | F6 log2 (H4K5me2/H4K5) (protein Q96RL1 UIMC1): 0.3246 | E6 log2 (H4K5me2/H4K5) (protein Q96SI9 STRBP): 0.1111 | F6 log2 (H4K5me2/H4K5) (protein Q96SI9 STRBP): -0.1086 | E6 log2 (H4K5me2/H4K5) (protein Q00839 HNRNPU): 0.1593 | F6 log2 (H4K5me2/H4K5) (protein Q00839 HNRNPU): 0.1015 | E6 log2 (H4K5me2/H4K5) (protein Q06265 EXOSC9): 0.08559 | F6 log2 (H4K5me2/H4K5) (protein Q06265 EXOSC9): 0.2199 | E6 log2 (H4K5me2/H4K5) (protein Q08211 DHX9): 0.1119 | F6 log2 (H4K5me2/H4K5) (protein Q08211 DHX9): 0.3522 | E6 log2 (H4K5me2/H4K5) (protein Q12888 TP53BP1): 0.1736 | F6 log2 (H4K5me2/H4K5) (protein Q12888 TP53BP1): 0.06404 | E6 log2 (H4K5me2/H4K5) (protein Q13409 DYNC1I2): 0.06369 | F6 log2 (H4K5me2/H4K5) (protein Q13409 DYNC1I2): -0.3262 | E6 log2 (H4K5me2/H4K5) (protein Q13838 DDX39B): 0.1273 | F6 log2 (H4K5me2/H4K5) (protein Q13838 DDX39B): 0.2575 | E6 log2 (H4K5me2/H4K5) (protein Q14247 CTTN): 0.1014 | F6 log2 (H4K5me2/H4K5) (protein Q14247 CTTN): -0.09702 | E6 log2 (H4K5me2/H4K5) (protein Q14498 RBM39): 0.177 | F6 log2 (H4K5me2/H4K5) (protein Q14498 RBM39): 0.352 | E6 log2 (H4K5me2/H4K5) (protein Q14683 SMC1A): 0.1403 | F6 log2 (H4K5me2/H4K5) (protein Q14683 SMC1A): 0.1731 | E6 log2 (H4K5me2/H4K5) (protein Q15007 WTAP): 0.1397 | F6 log2 (H4K5me2/H4K5) (protein Q15007 WTAP): 0.4766 | E6 log2 (H4K5me2/H4K5) (protein Q15029 EFTUD2): 0.07001 | F6 log2 (H4K5me2/H4K5) (protein Q15029 EFTUD2): 0.00906 | E6 log2 (H4K5me2/H4K5) (protein Q15181 PPA1): 0.1337 | F6 log2 (H4K5me2/H4K5) (protein Q15181 PPA1): 0.2844 | E6 log2 (H4K5me2/H4K5) (protein Q15366 PCBP2): 0.119 | F6 log2 (H4K5me2/H4K5) (protein Q15366 PCBP2): 0.02194 | E6 log2 (H4K5me2/H4K5) (protein Q15459 SF3A1): 0.09759 | F6 log2 (H4K5me2/H4K5) (protein Q15459 SF3A1): -0.03717 | E6 log2 (H4K5me2/H4K5) (protein Q15637 SF1): 0.06831 | F6 log2 (H4K5me2/H4K5) (protein Q15637 SF1): -0.04609 | E6 log2 (H4K5me2/H4K5) (protein Q15654 TRIP6): 0.1136 | F6 log2 (H4K5me2/H4K5) (protein Q15654 TRIP6): 0.7606 | E6 log2 (H4K5me2/H4K5) (protein Q16543 CDC37): 0.09946 | F6 log2 (H4K5me2/H4K5) (protein Q16543 CDC37): -0.01218 | E6 log2 (H4K5me2/H4K5) (protein Q92769 HDAC2): 0.1172 | F6 log2 (H4K5me2/H4K5) (protein Q92769 HDAC2): 0.07863 | E6 log2 (H4K5me2/H4K5) (protein Q92785 DPF2): 0.1557 | F6 log2 (H4K5me2/H4K5) (protein Q92785 DPF2): 0.235 | E6 log2 (H4K5me2/H4K5) (protein Q92945 KHSRP): 0.0526 | F6 log2 (H4K5me2/H4K5) (protein Q92945 KHSRP): 0.2777 | E6 log2 (H4K5me2/H4K5) (protein Q99459 CDC5L): 0.1274 | F6 log2 (H4K5me2/H4K5) (protein Q99459 CDC5L): -0.0666
